Test systems include SW-620 colon; OVCAR-5 ovarian; XF 498 CNS; M14 melanoma; DMS 114 small cell lung; MALME-3M melanoma; A549 NSCLC; SK-MEL-2 melanoma; HOP-18 NSCLC; MDA-MB-435; HS 578T breast.
What all share (assay): NCI-60 cell line screen, 48 h

The structures appear in SMILES notation.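 Step 1: Grow cells in 96-well plates. Step 2: Expose to compound for 48 hours at 5 concentrations. Step 3: Interpolate endpoints linearly; if unreached, use highest concentration. GI50: concentration for 50% inhibition of growth. The concentration for full growth arrest is given as TGI.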

With `N#CC(C#N)=C1NC(=O)C(c2ccccc2)C(=O)N1` (stereo unspecified), the TGI with SW-620 colon, with OVCAR-5 ovarian, in the assay on XF 498 CNS, in the assay with M14 melanoma, with DMS 114 small cell lung and in the assay on MALME-3M melanoma was greater than 100 µM each time. This compound also displayed a TGI in the assay on A549 NSCLC greater than 100 µM.
Turning to `CC(CN(CP(=O)([O-])[O-])CP(=O)([O-])[O-])N(CP(=O)([O-])[O-])CP(=O)([O-])[O-].N[C@@H]1CCCC[C@@H]1N.[Pt+2]` (stereo unspecified), the GI50 in the assay on SW-620 colon was greater than 100000 nM; with OVCAR-5 ovarian it was greater than 100000 nM; with SK-MEL-2 melanoma, greater than 100000 nM; in the assay on M14 melanoma, greater than 100 µM; in the assay on MALME-3M melanoma it was greater than 100 µM; with A549 NSCLC, greater than 100000 nM. Also, the GI50 in the assay on HOP-18 NSCLC was greater than 100 µM. The TGI in the assay with SW-620 colon, in the assay with OVCAR-5 ovarian, in the assay on SK-MEL-2 melanoma, with M14 melanoma, in the assay with MALME-3M melanoma and in the assay on A549 NSCLC was greater than 100 µM in each case. Also, in the assay on HOP-18 NSCLC, the TGI was greater than 100 µM.
In the case of `CC(=O)OCCOCNC(=S)N/N=C(\C)c1ccco1`, the TGI with SW-620 colon, in the assay on OVCAR-5 ovarian, in the assay with SK-MEL-2 melanoma, in the assay with M14 melanoma, in the assay with DMS 114 small cell lung and with MALME-3M melanoma was greater than 100 µM each time. For the same compound, the TGI in the assay with A549 NSCLC and with HOP-18 NSCLC was greater than 100 µM in each case.
In the case of `Cc1ccc(S(=O)(=O)N2CCCCC2CCO)cc1` (stereo unspecified), the TGI in the assay with SW-620 colon, with OVCAR-5 ovarian, in the assay on SK-MEL-2 melanoma, with M14 melanoma, with DMS 114 small cell lung and with MALME-3M melanoma was greater than 100 µM each time. The TGI with A549 NSCLC and in the assay on HOP-18 NSCLC was greater than 100 µM in each case.
For `CC(C)(C)NNc1c([N+](=O)[O-])cnn(-c2ccccc2)c1=O`, the TGI with SW-620 colon came to 3.41 µM; with OVCAR-5 ovarian it was 15.5 µM; in the assay with XF 498 CNS, 5.22 µM; with MDA-MB-435, 3.27 µM; with M14 melanoma it was 4.88 µM; in the assay on HS 578T breast, 26.1 µM. Moreover, the TGI came to 11.1 µM with MALME-3M melanoma, 32.4 µM with A549 NSCLC and 32 µM with HOP-18 NSCLC.
On to `CC(=O)O[C@H]1CC[C@@]2(C)C(=CC[C@@H]3C2CC[C@]2(C)Nc4oncc4CC32)C1` (stereo partly specified), for which the TGI was greater than 100 µM with SW-620 colon; greater than 100 µM with OVCAR-5 ovarian; 84.4 µM with XF 498 CNS; greater than 100 µM in the assay with SK-MEL-2 melanoma; greater than 100 µM in the assay on M14 melanoma; 82.2 µM in the assay with MALME-3M melanoma. For the same compound, in the assay on A549 NSCLC, the TGI is 83.6 µM.
As to `Cc1ccccc1NC(=O)c1[nH]c(=S)nc(N)c1-c1ccccc1C`, the TGI in the assay on SW-620 colon, in the assay on OVCAR-5 ovarian, with SK-MEL-2 melanoma, in the assay on M14 melanoma, in the assay with DMS 114 small cell lung and with MALME-3M melanoma was greater than 100 µM in each case. The TGI in the assay on A549 NSCLC and with HOP-18 NSCLC was greater than 100 µM each time.
As for `COC(=O)/C(C#N)=C1\N=NNN1CCCc1ccccc1`, the TGI in the assay with SW-620 colon, in the assay with M14 melanoma, with DMS 114 small cell lung, in the assay with MALME-3M melanoma, with A549 NSCLC and with HOP-18 NSCLC was greater than 100 µM throughout.
For `COc1ccccc1NC(=O)C1=C(C)NC(C)=C(C(=O)Nc2ccccc2OC)C1c1ccc(C(C)C)cc1`, the TGI with SW-620 colon, with OVCAR-5 ovarian, in the assay with XF 498 CNS, in the assay on SK-MEL-2 melanoma, in the assay on M14 melanoma and with MALME-3M melanoma was greater than 100 µM each time. The TGI with A549 NSCLC and in the assay with HOP-18 NSCLC was greater than 100 µM in each case.
Turning to `CC1OC(OP(=O)(OCc2ccccc2)OCc2ccccc2)C(OC(=O)c2ccccc2)C(OC(=O)c2ccccc2)C1I` (stereo unspecified), the TGI in the assay with SW-620 colon, in the assay on OVCAR-5 ovarian, in the assay with XF 498 CNS, in the assay on SK-MEL-2 melanoma, in the assay on M14 melanoma and with MALME-3M melanoma was greater than 100 µM each time. Also, in the assay with A549 NSCLC, the TGI was greater than 100 µM.
Turning to `O=C(/C=C/c1ccccc1F)C(c1ccccc1)c1ccccc1`, the TGI came out at 11.5 µM with SW-620 colon; 3.56 µM with XF 498 CNS; 6.15 µM in the assay with SK-MEL-2 melanoma; 6.81 µM in the assay with M14 melanoma; 23.7 µM with MALME-3M melanoma; 17.4 µM in the assay on A549 NSCLC.
With `Cc1c(Cl)cccc1NC(=O)C(=O)C1C(=O)NC(=O)NC1=O`, the TGI in the assay with SW-620 colon, with OVCAR-5 ovarian, with XF 498 CNS, with SK-MEL-2 melanoma, in the assay on M14 melanoma and in the assay with MALME-3M melanoma was greater than 100 µM each time. Further, the TGI in the assay with A549 NSCLC and in the assay with HOP-18 NSCLC was greater than 100 µM throughout.
For `Cn1c2ccccc2c2c3c(c4c5ccccc5n(CCCCCC#N)c4c21)C(=O)N(O)C3=O`, the GI50 in the assay with SW-620 colon was 732 nM; with OVCAR-5 ovarian it was 2430 nM; in the assay with SK-MEL-2 melanoma it was 1540 nM; in the assay with MDA-MB-435, 788 nM; with M14 melanoma, 0.39 µM; in the assay with HS 578T breast it was 3.25 µM. Further, the GI50 in the assay with MALME-3M melanoma was 2.22 µM; in the assay on A549 NSCLC, 1680 nM. The TGI in the assay with SW-620 colon was greater than 100 µM; with OVCAR-5 ovarian it was 8.04 µM; with SK-MEL-2 melanoma, 3.84 µM; with MDA-MB-435, 9.59 µM; in the assay with M14 melanoma, greater than 100 µM; with HS 578T breast, 41.9 µM. Further, the TGI in the assay on MALME-3M melanoma was determined as 7.05 µM; in the assay with A549 NSCLC, 50.4 µM.
Consider `COC(=O)c1c(-c2ccccc2)csc1NC(=O)c1c(-c2ccccc2)noc1C`, for which the GI50 with SW-620 colon was 705 nM; with MDA-MB-435, 1200 nM; with M14 melanoma, 6.86 µM; in the assay with HS 578T breast it was greater than 100 µM; with MALME-3M melanoma, greater than 100 µM; in the assay with A549 NSCLC, 568 nM. Moreover, the TGI in the assay on SW-620 colon, with OVCAR-5 ovarian, in the assay with SK-MEL-2 melanoma, in the assay on MDA-MB-435, in the assay on M14 melanoma and with HS 578T breast was greater than 100 µM throughout. The TGI in the assay with MALME-3M melanoma and in the assay with A549 NSCLC was greater than 100 µM throughout.

These data come from PubChem BioAssay (NCI).
